Reference: patent US5646141A, “Compounds useful as antiproliferative agents and GARFT inhibitors” (Agouron Pharmaceuticals, Inc., priority 1995, dated 1997)

Assays:
[1] = target: T1, human folate-binding protein (FBP) (Homo sapiens, UniProt P15328); experiment: FBP competitive binding assay (3H-folic acid, KB cell membranes); conditions: for Kd: 25° C., pH 7.4, 3H-folic acid competition
T1 construct: membrane associated FBP prepared from cultured KB cells; endogenous in cells; host or cells: KB cells (membrane fraction)
Procedure: Determination of Dissociation Constants for Human Folate Binding Protein:
The dissociation constant (Kd) for human folate-binding protein (FBP) was determined in a competitive binding assay using membrane associated FBP prepared from cultured KB cells.
Preparation of KB cell Membrane Fraction:
Adherent KB cells were scraped from flasks, washed once in ice-cold PBS, and centrifuged at 5000×g for 5 minutes at 4° C. Pelleted cells (2×10^8 cells) were resuspended in 10 ml of suspension buffer (KH2 PO4 -KOH pH 7.4:10 mM EDTA:10 mM 2-mercaptoethanol),sonicated briefly to complete cell lysis and centrifuged at 12000×g for 10 minutes at 4° C. The pellet was stripped of endogenous bound folate by resuspension in 20 ml of acidic buffer (50 mM KH2 PO4 -KOH pH 3.5:10 mM EDTA:10 mM 2-mercaptoethanol) and centrifuged as before. The pellet was then resuspended in 20 ml of the suspension buffer at pH 7.4 and centrifuged as before. The pellet was resuspended in 5 ml of suspension buffer at pH 7.4 lacking EDTA. Protein content was quantitated using the Bradford method with BSA as standard. Typical yields for this procedure were 4-5 mg total membrane protein per 2×10^8 cells. This final suspension was used as a source of membrane-associated human FBP.
FBP Competitive Binding Assay:
Inhibitor was allowed to compete against ^3 H-folic acid for binding to FBP. Reactions mixtures contained […] of cell membrane protein containing 3-6 pmoles (3-6 nM) of FBP, 17.25 pmoles ^3 H-folic acid (17.25 nM, 0.5 μCi), various concentrations of competitor, in 1 ml of 50 mM KH2 PO4 -KOH pH 7.4:10 mM 2-mercaptoethanol. Reactions were performed at 25° C. Because of the very slow release of bound ^3 H-folic acid, the competitor was prebound for 30 minutes in the absence of ^3 H-folic acid. ^3 H-Folic acid was then added and the mixtures were allowed to equilibrate for 2.5 hours. […] The amount of bound ^3 H-folic acid was measured by scintillation counting of the nitrocellulose membrane. […]

L1210 = experiment: In vitro growth inhibition (MTT), L1210; format: cell-based; conditions: Mus musculus, continuous (72-hour) exposure, mean IC50, read-out: IC50 Cell Culture L1210
Procedure: (§1) All cultures were maintained at 37° C., 5% air-CO2 in a humidified incubator.
In vitro growth inhibition:
(§2) Stock solutions of the inhibitors were prepared in 10 mM sodium bicarbonate in water and stored in 1 ml aliquots at -20° C. for cell culture experiments. Cell-growth inhibition was measured by a modification of the method of Mosmann, J. Immunol.
(§3) Column 1 was filled with the same volume, 135 ml, of fresh medium, without cells, for use as a blank. The plates were then placed in a 37° C., 5% air-CO2 incubator. After 1 to 4 hours, plates were removed from the incubator followed by addition of the test compound at 10×final concentration, 15 ml/well in binary dilutions, to columns 12 to 4. […] Wells containing each concentration of test compound were prepared in quadruplicate on each plate. Fifteen milliliters of media, without test compound, were added to the wells in column 1 of the plates. The cells were then returned to the incubator and remained undisturbed for the full incubation period. On day 3 for L1210 and L1210/CI920 cells or day 5 for CCRF-CEM cells, 50 ml of 0.8 mg/ml MTT (4,5-dimethylthiazol-2-yl)-2,5-diphenyl tetrazolium bromide; Sigma catalog no. […] The concentration of drug required to reduce cell growth by 50% as measured by MTT metabolism was determined by interpolation between the O.D. (minus blank) immediately above and below 50% of control O.D. (minus blank).

CCRF-CEM = experiment: In vitro growth inhibition (MTT), CCRF-CEM; format: cell-based; conditions: Homo sapiens, title: continuous (72-hour) exposure, incubation 5 days, mean IC50, read-out: IC50 Cell Culture CCRF-CEM
Procedure: as §1
In vitro growth inhibition:
as §2, §3

[2] = reported in literature (Muggia); cited from earlier work
[3] = test system: reduced folate transport system and the mFBP; conditions: CCRF-CEM and MA104 cell lines for DDATHF (Pizzorno et al.); cited from earlier work
mFBP = conditions: cited from earlier work
[4] = target: T2, catalytic domain of the human GARFT (Homo sapiens, UniProt P22102); experiment: GAR transformylase (GARFT) inhibition constant determination; format: biochemical; conditions: 20° C., pH 7.5, competitive with respect to FDDF
T2 construct: catalytic domain of the human GARFT
T2 sequence (P22102 810-1010 limits assumed): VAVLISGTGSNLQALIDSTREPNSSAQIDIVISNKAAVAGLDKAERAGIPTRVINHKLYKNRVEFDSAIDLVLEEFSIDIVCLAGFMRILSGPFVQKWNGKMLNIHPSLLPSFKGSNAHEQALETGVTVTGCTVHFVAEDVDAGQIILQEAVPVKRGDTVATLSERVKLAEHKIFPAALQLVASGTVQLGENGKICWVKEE

T1 sequence (P15328 25-257): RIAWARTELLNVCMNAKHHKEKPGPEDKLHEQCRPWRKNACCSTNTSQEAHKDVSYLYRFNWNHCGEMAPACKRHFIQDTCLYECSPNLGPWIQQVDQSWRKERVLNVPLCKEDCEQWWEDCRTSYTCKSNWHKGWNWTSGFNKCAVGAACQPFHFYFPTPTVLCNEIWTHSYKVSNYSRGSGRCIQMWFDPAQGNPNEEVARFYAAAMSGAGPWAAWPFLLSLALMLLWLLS

Ki [4] [nM] | relative folate binding protein Kd, times less potent than 6R-DDATHF ([1]; relative to 6R-DDATHF) | Compound | Kd [1] [nM] | IC50 (L1210) [nM] | IC50 (CCRF-CEM) [nM] | antitumor activity [2] | transport into cells [3] | affinity for the mFBP (mFBP)
 |  | Nc1nc2c(c(=O)[nH]1)CC(CCc1ccc(C(=O)N[C@@H](CCC(=O)O)C(=O)O)cc1)CN2 (stereo partly drawn) [DDATHF, 5,10-dideazatetrahydrofolic acid] | 0.02 | 17.5 | 1.5 | reported to show antitumor activity | transported into cells via both the reduced folate transport system and the mFBP | high affinity for the mFBP
1.4 | about 1400 times | Cc1cc(C(=O)N[C@@H](CCC(=O)O)C(=O)O)sc1CCC1CNc2nc(N)[nH]c(=O)c2C1 (stereo partly drawn) [Compound 1, N-(5-[2-(2-amino-4(3H)-oxo-5,6,7,8-tetrahydropyrido[2,3-d]pyrimidin 6-yl)ethyl]-4-methylthieno-2-yl)-L-glutamic acid] | 28 | 13.5 | 6.1 |  |  | 
 |  | CN(Cc1cnc2nc(N)nc(N)c2n1)c1ccc(C(=O)N[C@@H](CCC(=O)O)C(=O)O)cc1 [Methotrexate] |  |  |  |  | transported via the reduced folate transport system | 
